# In patent US11447505B1, “Pyrrolo[2,3-b]pyridine compounds and their use in the treatment of cancer” (priority 2017, dated 2022):
# How the values were obtained:
# ROCK2 = ROCK2 (Homo sapiens (Human), UniProt O75116); test: ROCK2 kinase assay (IMAP fluorescence polarization); type: biochemical; settings: 1 μM ATP; read-out: ROCK2 Average Ki
# Description: MRCKα, MRCKβ, ROCK1 and ROCK2 assays were performed using an IMAP fluorescence polarization assay format (Molecular Devices Inc.). 8-12 nM of each kinase (Life Technologies) was incubated for 60 min at room temperature with 100 nM FAM-S6-ribosomal protein derived peptide (synthesized by Alta Biosciences, University of Birmingham UK) in the presence of 1 μM ATP and 0.5 mM MgCl2 in 20 mM Tris buffer (pH 7.4) containing 0.01% Tween-20 and 1 mM DTT (MRCKα and β); or 1 μM ATP, 10 mM MgCl2 in 20 mM Tris buffer (pH 7.5) containing 0.25 mM EGTA 0.01% Triton X-100 and 1 mM DTT (ROCK1 and ROCK2). Typically, dose response analyses were performed over concentration ranges from 0.005-100 μM. Reactions were stopped by adding 2 assay volumes of 0.25% (v/v) IMAP binding reagent in 1×IMAP binding buffer A (Molecular Devices). After 30 min incubation to allow binding reagent to bind phosphorylated peptide, fluorescence polarization was measured on a Tecan Saphire^2 plate reader at excitation (470 nm) and emission (530 nm) wavelengths.
# ROCK1 = ROCK1 (Homo sapiens (Human), UniProt Q13464); settings: read-out: ROCK1 Average Ki; 1 μM ATP
# MRCKβ = MRCKβ (Homo sapiens (Human), UniProt Q9Y5S2); test: MRCKβ kinase assay (IMAP fluorescence polarization); type: biochemical; settings: 1 μM ATP; read-out: MRCK-B Average Ki
# Description: MRCKα, MRCKβ, ROCK1 and ROCK2 Kinase Assays
# Chain of ROCK1 (Q13464 2-1354 limits assumed): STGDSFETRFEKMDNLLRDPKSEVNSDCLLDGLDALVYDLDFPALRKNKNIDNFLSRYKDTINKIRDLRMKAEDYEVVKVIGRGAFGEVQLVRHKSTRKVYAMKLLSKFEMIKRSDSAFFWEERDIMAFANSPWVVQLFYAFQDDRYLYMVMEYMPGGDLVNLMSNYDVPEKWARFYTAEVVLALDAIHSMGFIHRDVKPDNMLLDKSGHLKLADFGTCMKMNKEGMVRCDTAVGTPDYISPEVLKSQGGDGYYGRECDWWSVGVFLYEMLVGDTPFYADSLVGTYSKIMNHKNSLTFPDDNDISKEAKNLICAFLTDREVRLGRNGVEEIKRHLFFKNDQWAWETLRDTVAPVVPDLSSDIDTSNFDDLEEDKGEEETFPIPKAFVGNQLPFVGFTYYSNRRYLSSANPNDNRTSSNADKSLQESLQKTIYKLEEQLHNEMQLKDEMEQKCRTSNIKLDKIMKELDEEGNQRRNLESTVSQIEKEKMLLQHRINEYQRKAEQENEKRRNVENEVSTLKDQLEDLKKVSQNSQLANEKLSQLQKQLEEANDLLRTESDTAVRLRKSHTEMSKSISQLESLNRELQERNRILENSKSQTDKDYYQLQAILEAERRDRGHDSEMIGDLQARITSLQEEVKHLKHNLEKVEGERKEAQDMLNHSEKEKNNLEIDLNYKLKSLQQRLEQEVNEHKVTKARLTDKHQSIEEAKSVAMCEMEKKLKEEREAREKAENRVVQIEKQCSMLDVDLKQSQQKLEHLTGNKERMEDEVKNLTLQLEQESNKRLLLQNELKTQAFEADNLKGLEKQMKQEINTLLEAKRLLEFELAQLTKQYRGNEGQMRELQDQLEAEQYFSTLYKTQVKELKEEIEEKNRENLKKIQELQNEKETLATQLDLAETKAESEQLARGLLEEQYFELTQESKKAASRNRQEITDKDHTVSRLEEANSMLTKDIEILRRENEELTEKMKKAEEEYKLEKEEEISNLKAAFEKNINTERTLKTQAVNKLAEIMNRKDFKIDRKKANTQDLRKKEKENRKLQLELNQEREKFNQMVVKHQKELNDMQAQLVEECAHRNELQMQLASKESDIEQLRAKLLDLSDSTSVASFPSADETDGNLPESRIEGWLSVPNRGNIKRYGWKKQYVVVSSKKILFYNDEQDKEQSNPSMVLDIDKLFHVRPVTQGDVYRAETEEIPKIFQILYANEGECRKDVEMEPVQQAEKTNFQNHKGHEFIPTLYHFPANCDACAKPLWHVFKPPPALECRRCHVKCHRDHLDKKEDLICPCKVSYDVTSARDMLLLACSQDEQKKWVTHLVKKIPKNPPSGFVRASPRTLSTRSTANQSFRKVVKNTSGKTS
# Chain of ROCK2 (O75116 whole entry): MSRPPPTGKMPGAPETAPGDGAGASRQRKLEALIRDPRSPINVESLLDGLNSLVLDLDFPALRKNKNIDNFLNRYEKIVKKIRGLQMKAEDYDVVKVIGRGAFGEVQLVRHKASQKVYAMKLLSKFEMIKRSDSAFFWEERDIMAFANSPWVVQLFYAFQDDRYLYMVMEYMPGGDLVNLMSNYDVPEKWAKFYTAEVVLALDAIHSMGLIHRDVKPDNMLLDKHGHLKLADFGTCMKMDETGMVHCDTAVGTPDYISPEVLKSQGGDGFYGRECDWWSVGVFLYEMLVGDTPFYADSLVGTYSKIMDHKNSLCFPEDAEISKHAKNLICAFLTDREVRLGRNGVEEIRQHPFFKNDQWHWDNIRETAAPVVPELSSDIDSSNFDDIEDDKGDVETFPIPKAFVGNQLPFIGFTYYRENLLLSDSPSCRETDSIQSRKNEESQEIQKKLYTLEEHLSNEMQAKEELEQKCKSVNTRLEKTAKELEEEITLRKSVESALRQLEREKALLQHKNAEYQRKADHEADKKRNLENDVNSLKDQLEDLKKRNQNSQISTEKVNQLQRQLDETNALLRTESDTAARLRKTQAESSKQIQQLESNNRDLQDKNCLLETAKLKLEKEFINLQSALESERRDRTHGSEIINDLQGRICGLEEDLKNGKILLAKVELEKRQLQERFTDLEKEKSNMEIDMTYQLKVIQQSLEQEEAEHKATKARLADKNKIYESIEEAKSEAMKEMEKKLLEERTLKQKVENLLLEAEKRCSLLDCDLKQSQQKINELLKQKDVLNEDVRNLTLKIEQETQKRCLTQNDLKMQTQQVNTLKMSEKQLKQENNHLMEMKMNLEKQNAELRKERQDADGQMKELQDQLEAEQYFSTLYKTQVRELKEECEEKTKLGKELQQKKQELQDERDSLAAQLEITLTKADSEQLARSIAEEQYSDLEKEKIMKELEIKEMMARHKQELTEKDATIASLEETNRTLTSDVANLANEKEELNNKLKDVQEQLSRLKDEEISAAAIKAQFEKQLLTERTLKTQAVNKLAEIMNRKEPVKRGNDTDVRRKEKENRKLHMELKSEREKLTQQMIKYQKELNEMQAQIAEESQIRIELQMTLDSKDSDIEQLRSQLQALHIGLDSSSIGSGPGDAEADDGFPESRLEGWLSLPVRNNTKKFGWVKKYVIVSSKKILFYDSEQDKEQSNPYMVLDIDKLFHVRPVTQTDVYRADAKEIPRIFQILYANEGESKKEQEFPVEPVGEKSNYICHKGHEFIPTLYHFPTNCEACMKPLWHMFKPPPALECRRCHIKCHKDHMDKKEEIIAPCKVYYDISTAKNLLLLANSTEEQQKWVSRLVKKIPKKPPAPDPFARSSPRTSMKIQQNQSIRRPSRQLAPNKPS
SMILES,Ki (ROCK2),Ki (ROCK1),Ki (MRCKβ)
"NC1CCCN(c2ccnc3[nH]cc(-c4cncnc4)c23)C1 (stereo not drawn) [Example E59, 1-(3-pyrimidin-5-yl-1H-pyrrolo[2,3-b]pyridin-4-yl)piperidin-3-amine]",0.154 µM,0.318 µM,0.0069 µM
"Cc1[nH]ncc1-c1c[nH]c2nccc(N3CCC[C@H](N)C3)c12 [Example E61, (3S)-1-[3-(5-methyl-1H-pyrazol-4-yl)-1H-pyrrolo[2,3-b]pyridin-4-yl]piperidin-3-amine]",0.0683 µM,0.0932 µM,0.0115 µM
"CNC1CCCN(c2ccnc3[nH]cc(-c4cncnc4)c23)C1 (stereo not drawn) [Example E62, N-methyl-1-(3-pyrimidin-5-yl-1H-pyrrolo[2,3-b]pyridin-4-yl)piperidin-3-amine]",0.314 µM,0.36 µM,0.0041 µM
"CNC1CCN(c2ccnc3[nH]cc(-c4cncnc4)c23)CC1 [Example E63, N-methyl-1-(3-pyrimidin-5-yl-1H-pyrrolo[2,3-b]pyridin-4-yl)piperidin-4-amine]",0.0912 µM,0.138 µM,0.00198 µM
"N[C@@H]1CCCN(c2ccnc3[nH]cc(-c4cncnc4)c23)C1 [Example E64, (3R)-1-(3-pyrimidin-5-yl-1H-pyrrolo[2,3-b]pyridin-4-yl)piperidin-3-amine]",0.39 µM,0.166 µM,0.0148 µM
"NC1CCN(c2ccnc3[nH]cc(-c4cncnc4)c23)CC1 [Example E65, 1-(3-pyrimidin-5-yl-1H-pyrrolo[2,3-b]pyridin-4-yl)piperidin-4-amine]",0.138 µM,0.128 µM,0.00165 µM
"CN[C@H]1CCCN(c2ccnc3[nH]cc(-c4cnsc4)c23)C1 [Example E67, (3S)-1-(3-isothiazol-4-yl-1H-pyrrolo[2,3-b]pyridin-4-yl)-N-methyl-piperidin-3-amine]",0.0364 µM,0.109 µM,0.000273 µM
"CCN[C@H]1CCCN(c2ccnc3[nH]cc(-c4ccnnc4)c23)C1 [Example E71, (3S)—N-ethyl-1-(3-pyridazin-4-yl-1H-pyrrolo[2,3-b]pyridin-4-yl)piperidin-3-amine]",0.0739 µM,0.152 µM,0.000802 µM
"COCCN[C@H]1CCCN(c2ccnc3[nH]cc(-c4cncnc4)c23)C1 [Example E73, (3S)-N-(2-methoxyethyl)-1-(3-pyrimidin-5-yl-1H-pyrrolo[2,3-b]pyridin-4-yl)piperidin-3-amine]",0.964 µM,2.06 µM,0.00571 µM
"CN[C@H]1CCCN(c2ccnc3[nH]cc(C#N)c23)C1 [Example E74, 4-[(3S)-3-(methylamino)-1-piperidyl]-1H-pyrrolo[2,3-b]pyridine-3-carbonitrile]",0.222 µM,0.637 µM,0.00616 µM
"CN[C@H]1CCCN(c2ccnc3[nH]cc(-c4cnc(C)nc4)c23)C1 [Example E75, (3S)-N-methyl-1-[3-(2-methylpyrimidin-5-yl)-1H-pyrrolo[2,3-b]pyridin-4-yl]piperidin-3-amine]",6.42 µM,21.7 µM,0.0254 µM
"CC(C)N[C@H]1CCCN(c2ccnc3[nH]cc(-c4cncnc4)c23)C1 [Example E76, (3S)-N-isopropyl-1-(3-pyrimidin-5-yl-1H-pyrrolo[2,3-b]pyridin-4-yl)piperidin-3-amine]",16.8 µM,32.4 µM,0.871 µM
"CN[C@@H]1CCCN(c2ccnc3[nH]cc(-c4cncnc4)c23)C1 [Example E77, (3R)-N-methyl-1-(3-pyrimidin-5-yl-1H-pyrrolo[2,3-b]pyridin-4-yl)piperidin-3-amine]",0.248 µM,0.379 µM,0.0105 µM
"c1ncc(-c2c[nH]c3nccc(NC4CCCCNC4)c23)cn1 (stereo not drawn) [Example E85, N-(azepan-3-yl)-3-pyrimidin-5-yl-1H-pyrrolo[2,3-b]pyridin-4-amine]",0.46 µM,0.421 µM,0.0141 µM
"c1ncc(-c2c[nH]c3nccc(N[C@@H]4CCCNC4)c23)cn1 [Example E88, N-[(3R)-3-piperidyl]-3-pyrimidin-5-yl-1H-pyrrolo[2,3-b]pyridin-4-amine]",0.0704 µM,0.0852 µM,0.00721 µM
"c1ncc(-c2c[nH]c3nccc(NC4CCNCC4)c23)cn1 [Example E89, N-(4-piperidyl)-3-pyrimidin-5-yl-1H-pyrrolo[2,3-b]pyridin-4-amine]",0.0927 µM,0.109 µM,0.0205 µM
"CNCC1CCCN(c2ccnc3[nH]cc(-c4cncnc4)c23)C1 (stereo not drawn) [Example E90, N-methyl-1-[1-(3-pyrimidin-5-yl-1H-pyrrolo[2,3-b]pyridin-4-yl)-3-piperidyl]methanamine]",0.217 µM,0.148 µM,0.00601 µM
"c1ncc(-c2c[nH]c3nccc(N4CCCC(N5CCNCC5)C4)c23)cn1 (stereo not drawn) [Example E91, 4-(3-piperazin-1-yl-1-piperidyl)-3-pyrimidin-5-yl-1H-pyrrolo[2,3-b]pyridine]",0.163 µM,0.231 µM,0.0495 µM
"FC1CCN([C@H]2CCCN(c3ccnc4[nH]cc(-c5cncnc5)c34)C2)CC1 [Example E94, 4-[(3S)-3-(4-fluoro-1-piperidyl)-1-piperidyl]-3-pyrimidin-5-yl-1H-pyrrolo[2,3-b]pyridine]",0.495 µM,0.913 µM,0.00933 µM
"c1ncc(-c2c[nH]c3nccc(N4CCC[C@H](N5CCOCC5)C4)c23)cn1 [Example E96, 4-[(3S)-1-(3-pyrimidin-5-yl-1H-pyrrolo[2,3-b]pyridin-4-yl)-3-piperidyl]morpholine]",0.876 µM,1.3 µM,0.0288 µM
"O[C@H]1CCCN(c2ccnc3[nH]cc(-c4cncnc4)c23)C1 [Example E101, (3S)-1-(3-pyrimidin-5-yl-1H-pyrrolo[2,3-b]pyridin-4-yl)piperidin-3-ol]",0.363 µM,0.567 µM,0.0225 µM
"c1ncc(-c2c[nH]c3nccc(NCC4CCNCC4)c23)cn1 [Example E102, N-(4-piperidylmethyl)-3-pyrimidin-5-yl-1H-pyrrolo[2,3-b]pyridin-4-amine]",0.0512 µM,0.0382 µM,0.0139 µM
"CN1CCCN(c2ccnc3[nH]cc(-c4cncnc4)c23)CC1 [Example E103, 4(4-methyl-1,4-diazepan-l-yl)-3-pyrimidin-5-yl-1H-pyrrolo[2,3-b]pyridine]",0.161 µM,0.252 µM,0.0187 µM
"Cc1[nH]ncc1-c1c[nH]c2nccc(N3CCCCC3)c12 [Example E104, 3-(5-methyl-1H-pyrazol-4-yl)-4-(1-piperidyl)-1H-pyrrolo[2,3-b]pyridine]",0.198 µM,0.303 µM,0.222 µM
"NCC1CCN(c2ccnc3[nH]cc(-c4cncnc4)c23)CC1 [Example E105, [1-(3-pyrimidin-5-yl-1H-pyrrolo[2,3-b]pyridin-4-yl)-4-piperidyl]methanamine]",0.0095 µM,0.0101 µM,0.001 µM
"N#Cc1c[nH]c2nccc(N3CCCC3Cc3ccccc3)c12 (stereo not drawn) [Example E107, 4-(2-benzylpyrrolidin-1-yl)-1H-pyrrolo[2,3-b]pyridine-3-carbonitrile]",2.82 µM,1.88 µM,0.0903 µM
"COC[C@@H]1CCCN1c1ccnc2[nH]cc(C#N)c12 [Example E108, 4-[(2S)-2-(methoxymethyl)pyrrolidin-1-yl]-1H-pyrrolo[2,3-b]pyridine-3-carbonitrile]",0.0188 µM,0.0218 µM,0.00389 µM
